According to article PMC12903969, “Discovery of a Novel and Potent Kir4.1 Inhibitor as a Safe and Rapid‐Onset Antidepressant Agent in Mice” (Advanced Science, 2025):
Where two headings read alike, the source gives them in different places.

Experiments:
[1] = test system: primary cortical astrocytes (native Kir4.1 channels); assay: Patch clamp of primary cultured WT astrocytes (native Kir4.1); assay type: cell-based, mouse; conditions: JX3212 3 µM; BaCl2 100 µM
Description: Astrocytes were isolated and cultured as previously described.^[ [16] ^] Briefly, the cortices from P1‐P4 mouse pups were dissected and incubated for 25 min in Hank's Balanced Salt Solution (22.5 ml) with 2.5% trypsin (2.5 ml) at 37 °C. Cells were dissociated in cultured medium (DMEM/F12 supplemented with 10% fetal bovine serum and 1% penicillin and streptomycin) and filtered with a 70‐µm cell strainer. Cell suspensions were cultured in PDL‐pretreated 75‐cm^2 flasks for the initial seven days, with half of the medium replaced every 2 days. Subsequently, the cultures were shaken at 220 rpm for 6 h at 37 °C to remove microglia and oligodendrocytes from the astrocyte layers. The astrocytes were harvested, reseeded in two new flasks, and cultured in an incubator for 14 days. For Kir4.1 deletion in cell cultures, 4‐OH tamoxifen (final concentration: 1 µM, Felixbio) was added into Kir4.1^flox/flox: Aldh1l1‐Cre/ERT2 cortical cultures at DIV 2 and DIV 4, respectively, and completely removed at DIV7 when astrocytes were reseeded in fresh culture medium.
(§1) Whole‐cell patch‐clamp recordings were obtained either in transiently transfected CHO‐K1 cells or in primary cultured astrocytes at room temperature using standard patch‐clamp techniques with an Axopatch‐700B amplifier (Axon Instruments). The signals were filtered at 2 kHz and sampled at 20 kHz using the Digidata 1440A interface (Axon Instruments). The resistance of borosilicate glass pipettes was typically 2–4 MΩ when filled with the internal solution. Drug application was facilitated using a BPS perfusion system (ALA Scientific Instruments). Macroscopic currents generated by expressed potassium channels were recorded under the voltage‐clamp conditions with an internal pipette solution composed of (in mM): 140 KCl, 5 NaCl, 1 CaCl2, 1 MgCl2, 10 HEPES, and 10 EGTA, pH 7.2 adjusted with KOH. The external solution contained (in mM): 140 NaCl, 5 KCl, 2 CaCl2, 1 MgCl2, 10 glucose, and 10 HEPES, pH 7.4 adjusted with NaOH. Currents were elicited with a hyperpolarized voltage at −120 mV from the holding potential of −80 mV, followed by a ramp voltage depolarizing to +50 mV. Astrocytic resting membrane potentials were recorded under current‐clamp conditions (I = 0 pA) using standard internal and external solutions, determined immediately after achieving whole‐cell mode.

[2] = test system: MDA-MB-468 breast cancer cells; assay: Cytotoxicity test (CCK-8); assay type: cell-based; conditions: read-out: IC50 ± SD (μM) for MDA-MB-468 Inhibition
Description: Cytotoxicity of all the tested compounds was determined using the cell counting kit‐8 (CCK‐8) assay kit (Beyotime, Shanghai, China). Briefly, MDA‐MB‐468 was cultured in L15 medium and plated in 96‐well plates at a density of 12,000 cells per well for 24 h at 37 °C in a 5% CO2 incubator. The tested compounds were dissolved in DMSO and diluted with culture medium (DMSO final concentration < 0.4%). Then the cells were treated with compounds (0.41, 1.23, 3.70, 11.11, 33.33, 100.00 µM) for 48 h. After treatments, removal of the supernatant liquor, 100 µL of new media diluted CCK‐8 solution (10% CCK‐8) was added into each well and incubated at 37 °C for 2 h. The absorbance of the mixture was directly measured at 450 nm. The results are presented as a percentage of the control.

Kir4.1 = target: T1, Kir4.1 (Homo sapiens, UniProt P78508); assay: Whole-cell patch clamp, Kir4.1 currents in transfected CHO-K1 cells; assay type: cell-based; conditions: for inhibition at 1 µM: CHO-K1, 1 μM; for inhibition at 10 µM: CHO-K1, 10 μM
T1 construct: host or cells: CHO-K1
T1 sequence (P78508 1-379): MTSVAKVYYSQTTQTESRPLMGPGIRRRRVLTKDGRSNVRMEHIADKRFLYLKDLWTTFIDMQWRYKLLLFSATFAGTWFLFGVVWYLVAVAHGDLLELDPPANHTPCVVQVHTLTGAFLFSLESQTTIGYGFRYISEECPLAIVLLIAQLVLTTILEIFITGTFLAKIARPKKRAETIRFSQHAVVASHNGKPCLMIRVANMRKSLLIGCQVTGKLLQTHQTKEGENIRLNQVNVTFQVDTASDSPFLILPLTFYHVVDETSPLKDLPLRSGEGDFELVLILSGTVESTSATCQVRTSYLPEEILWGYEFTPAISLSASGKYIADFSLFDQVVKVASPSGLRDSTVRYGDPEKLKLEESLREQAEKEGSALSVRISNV
Description: Plasmids encoding WT human potassium channels Kir1.1, Kir2.1, Kir2.2, Kir4.1, and Kir4.2 were obtained from the Beijing Genomics Institute. All point mutations were constructed using the QuickChange II Site‐Directed Mutagenesis Kit (Stratagene) and subsequently verified by sequencing.
CHO‐K1 cells were maintained in DMEM/F12 growth medium containing 10% fetal bovine serum. Plasmids encoding the target genes (3600 ng) and enhanced green fluorescent protein (400 ng) were cotransfected into cells using Lipofectamine 2000 (Invitrogen) in accordance with the manufacturer's instructions. Cells were seeded onto poly‐d‐lysine (PDL)‐coated glass coverslips 1 h prior to electrophysiological recordings. All cells were cultured under standard conditions of 5% CO2 at 37 °C.
as §1

[3] = Homo sapiens, MDA-MB-468, MDA-MB-468 breast cancer cells
[4] = CHO-K1, 0.5 μM, +50 mV, read-out: Kir4.1 Inhibition ± SD (%) at 0.5 μM, +50 mV
[5] = CHO-K1, 0.5 μM, -120 mV, read-out: Kir4.1 Inhibition ± SD (%) at 0.5 μM, -120 mV
[6] = +50 mV, read-out: Kir4.1 Inhibition ± SD (%) at 1 μM, +50 mV
[7] = -120 mV, read-out: Kir4.1 Inhibition ± SD (%) at 1 μM, -120 mV
[8] = +50 mV, read-out: Kir4.1 Inhibition ± SD (%) at 10 μM, +50 mV
[9] = -120 mV, read-out: Kir4.1 Inhibition ± SD (%) at 10 μM, -120 mV

inhibition at 0.5 µM (Kir4.1; [4]) [%] | inhibition at 0.5 µM (Kir4.1; [5]) [%] | inhibition at 1 µM (Kir4.1; [6]) [%] | inhibition at 1 µM (Kir4.1; [7]) [%] | inhibition at 10 µM (Kir4.1; [8]) [%] | inhibition at 10 µM (Kir4.1; [9]) [%] | inhibition at 0.5 µM (Kir4.1; CHO-K1, 0.5 µM, read-out: Kir4.1 inhibition at 0.5 µM) [%] | Kir4.1 Inhibition ± SD (%) at 1 μM, +50 mV (Kir4.1; 1 μM, +50 mV) [%] | Kir4.1 Inhibition ± SD (%) at 1 μM, -120 mV (Kir4.1; 1 μM, -120 mV) [%] | Kir4.1 Inhibition ± SD (%) at 10 μM, +50 mV (Kir4.1; 10 μM, +50 mV) [%] | Kir4.1 Inhibition ± SD (%) at 10 μM, -120 mV (Kir4.1; 10 μM, -120 mV) [%] | Compound | astrocytic resting membrane potential (in words) [1] | IC50 [2, 3] [µM] | IC50 ([2]; MDA-MB-468 breast cancer cells) [µM]
 |  | -0.93 ± 7.76 | -3.38 ± 9.3 | 97.5 ± 1.92 | 94.2 ± 1.77 |  |  |  |  |  | C[C@@H]1CN(CCCNc2nccc(Nc3ccc4oc5ccccc5c4c3)n2)C[C@H](C)O1 [JX3242, N^4-(dibenzo[b,d]furan-2-yl)-N^2-(3-((2S,6R)-2,6-dimethylmorpholino)propyl)pyrimidine-2,4-diamine] |  | 5.38 ± 0.11 | 
21.4 ± 6.07 | 9.76 ± 2.44 | 96.35 ± 0.66 | 92.48 ± 0.8 | 96.84 ± 0.61 | 95.5 ± 2.8 |  |  |  |  |  | CC1CCN(CCCNc2nccc(Nc3ccc4oc5ccccc5c4c3)n2)CC1 [JX3245, N^4-(dibenzo[b,d]furan-2-yl)-N^2-(3-(4-methylpiperidin-1-yl)propyl)pyrimidine-2,4-diamine] |  | 5.95 ± 0.04 | 
 |  | 21.9 ± 8.36 | 11.5 ± 6.63 | 97.46 ± 0.59 | 81.5 ± 2.87 |  |  |  |  |  | c1ccc2c(c1)oc1ccc(Nc3ccnc(NCCCN4CCN(C5COC5)CC4)n3)cc12 [JX3248, N^4-(dibenzo[b,d]furan-2-yl)-N^2-(3-(4-(oxetan-3-yl)piperazin-1-yl)propyl)pyrimidine-2,4-diamine] |  | > 50 | 
56 ± 5.59 | 46.4 ± 8.18 | 92.4 ± 1.44 | 82.2 ± 2.24 | 98.49 ± 0.04 | 94.9 ± 1.88 |  |  |  |  |  | c1ccc2c(c1)oc1ccc(Nc3ccnc(NCCCN4CCCCCC4)n3)cc12 [JX3249, N^2-(3-(azepan-1-yl)propyl)-N^4-(dibenzo[b,d]furan-2-yl)pyrimidine-2,4-diamine] |  | 5.1 ± 0.21 | 
 |  | 44 ± 9.96 | 30.4 ± 8.64 | 97.4 ± 1.14 | 88.3 ± 4.59 |  |  |  |  |  | c1ccc2c(c1)oc1ccc(Nc3ccnc(NCCCN4CCCOCC4)n3)cc12 [JX3250, N^2-(3-(1,4-oxazepan-4-yl)propyl)-N^4-(dibenzo[b,d]furan-2-yl)pyrimidine-2,4-diamine] |  | 12.2 ± 0.87 | 
 |  |  |  |  |  |  | 30.53 ± 6.87 | 27.52 ± 8.17 | 93.00 ± 1.73 | 92.47 ± 0.40 | N^4-(1H-indol-5-yl)-N^2-(3-morpholinopropyl)pyrimidine-2,4-diamine [JX3207] |  |  | 12.3 ± 1.32

The remaining lines, values behind:

Compound | inhibition at 0.5 µM (Kir4.1; [4]) [%] | inhibition at 0.5 µM (Kir4.1; [5]) [%] | inhibition at 1 µM (Kir4.1; [6]) [%] | inhibition at 1 µM (Kir4.1; [7]) [%] | inhibition at 10 µM (Kir4.1; [8]) [%] | inhibition at 10 µM (Kir4.1; [9]) [%] | inhibition at 0.5 µM (Kir4.1; CHO-K1, 0.5 µM, read-out: Kir4.1 inhibition at 0.5 µM) [%] | Kir4.1 Inhibition ± SD (%) at 1 μM, +50 mV (Kir4.1; 1 μM, +50 mV) [%] | Kir4.1 Inhibition ± SD (%) at 1 μM, -120 mV (Kir4.1; 1 μM, -120 mV) [%] | Kir4.1 Inhibition ± SD (%) at 10 μM, +50 mV (Kir4.1; 10 μM, +50 mV) [%] | Kir4.1 Inhibition ± SD (%) at 10 μM, -120 mV (Kir4.1; 10 μM, -120 mV) [%] | astrocytic resting membrane potential (in words) [1] | IC50 [2, 3] [µM] | IC50 ([2]; MDA-MB-468 breast cancer cells) [µM]
[Ba+2].[Cl-].[Cl-] [BaCl2, reference compound] |  |  |  |  |  |  |  |  |  |  |  | marked depolarization |  | 
CC1(C)C2CN(CCCNc3nccc(Nc4ccc5oc6ccccc6c5c4)n3)CC21 (stereo not shown) [JX3240, N^4-(dibenzo[b,d]furan-2-yl)-N^2-(3-(6,6-dimethyl-3-azabicyclo[3.1.0]hexan-3-yl)propyl)pyrimidine-2,4-diamine] | -0.92 ± 3.58 | -0.29 ± 1.05 | 90 ± 1.44 | 84.7 ± 4.13 | 97.46 ± 0.83 | 97.35 ± 0.65 |  |  |  |  |  |  | 5.37 ± 0.22 | 
O=C(NCCCNc1nccc(Nc2ccc3oc4ccccc4c3c2)n1)N1CCOCC1 [JX3241, N-(3-((4-(dibenzo[b,d]furan-2-ylamino)pyrimidin-2-yl)amino)propyl)morpholine-4-carboxamide] |  |  | 4.09 ± 2.08 | 1.97 ± 2.44 | 84.2 ± 2.69 | 59.5 ± 3.66 |  |  |  |  |  |  | 21.1 ± 1.53 | 
c1ccc2c(c1)oc1ccc(Nc3ccnc(NCCCN4CCSCC4)n3)cc12 [JX3243, N^4-(dibenzo[b,d]furan-2-yl)-N^2-(3-thiomorpholinopropyl)pyrimidine-2,4-diamine] |  |  | -1.39 ± 1.64 | 0.17 ± 1.63 | 98.74 ± 0.36 | 98.6 ± 0.56 |  |  |  |  |  |  | 7.11 ± 0.62 | 
c1ccc2c(c1)oc1ccc(Nc3ccnc(NCCCN4CCCCC4)n3)cc12 [JX3244, N^4-(dibenzo[b,d]furan-2-yl)-N^2-(3-(piperidin-1-yl)propyl)pyrimidine-2,4-diamine] | 74.9 ± 2.12 | 63 ± 5.95 | 85.4 ± 3.98 | 74.5 ± 6.63 | 98.66 ± 0.25 | 97 ± 1.09 | > 60 |  |  |  |  |  | 6.86 ± 0.23 | 
COC1CCN(CCCNc2nccc(Nc3ccc4oc5ccccc5c4c3)n2)CC1 [JX3246, N^4-(dibenzo[b,d]furan-2-yl)-N^2-(3-(4-methoxypiperidin-1-yl)propyl)pyrimidine-2,4-diamine] |  |  | 73 ± 5.77 | 55.4 ± 3.73 | 91.3 ± 3.5 | 89.5 ± 2.33 |  |  |  |  |  |  | 9.97 ± 0.62 | 
CC1CC(C)CN(CCCNc2nccc(Nc3ccc4oc5ccccc5c4c3)n2)C1 (stereo not shown) [JX3247, N^4-(dibenzo[b,d]furan-2-yl)-N^2-(3-(3,5-dimethylpiperidin-1-yl)propyl)pyrimidine-2,4-diamine] |  |  | 80.4 ± 8.36 | 66.6 ± 2.75 | 97.75 ± 0.84 | 94.2 ± 2.26 |  |  |  |  |  |  | 6.03 ± 0.24 | 
